Test results published in ChEMBL document CHEMBL1140823, “Pyrazolopyridines with potent activity against herpesviruses: effects of C5 substituents on antiviral activity” (Bioorg Med Chem Lett, 2008).
pIC50: −log10 of the molar value.

How the values were obtained:
Human alphaherpesvirus 1 = assay: Antiviral activity against HSV1 SC16 in african green monkey Vero cells; type: functional, organism-based; details: Human alphaherpesvirus 1, SC16, Vero
[1] = Cytotoxicity against african green monkey Vero cells; type: cell-based; details: chlorocebus sabaeus

pIC50 (Human alphaherpesvirus 1)	SMILES	CC50 [1] [µM]
7.15	CCSc1cc(NC2CCCC2)cc2c(-c3ccnc(NC4CCCC4)n3)c(-c3ccc(F)cc3)nn12	> 40
6.25	CC(C)COc1ccc(-c2nn3ccc(NC4CCCC4)cc3c2-c2ccnc(NC3CCCC3)n2)cc1	27
5.87	Fc1ccc(-c2nn3ccc(N4CCCC4)cc3c2-c2ccnc(NC3CCCC3)n2)cc1	> 40
5.74	COc1ccc(-c2nn3c(Sc4ccccc4)cc(NC4CCCC4)cc3c2-c2ccnc(NC3CCCC3)n2)cc1	> 40
6.68	COc1ccc(-c2nn3ccc(NC4CCCC4)cc3c2-c2ccnc(NC3CCCC3)n2)cc1	12.3
5.56	CC(C)Nc1ccn2nc(-c3ccc(F)cc3)c(-c3ccnc(NC4CCCC4)n3)c2c1	> 40
6.49	COCCOc1cc(NC2CCCC2)n2nc(-c3ccc(F)cc3)c(-c3ccnc(NC4CCCC4)n3)c2c1	> 40
6.89	COc1cc(NC2CCCC2)n2nc(-c3ccc(F)cc3)c(-c3ccnc(NC4CCCC4)n3)c2c1	> 40
5.87	Fc1ccc(-c2nn3c(Cl)cc(NC4CCCC4)cc3c2-c2ccnc(NC3CCCC3)n2)cc1	> 40
6.48	Fc1ccc(-c2nn3c(NC4CCCC4)cc(Cl)cc3c2-c2ccnc(NC3CCCC3)n2)cc1	> 40
7.40	CCSc1cc(NC2CCCC2)cc2c(-c3ccnc(NC4CCCC4)n3)c(-c3ccc(OC)cc3)nn12	> 40
6.42	CN(C)c1cc(Cl)cc2c(-c3ccnc(NC4CCCC4)n3)c(-c3ccc(F)cc3)nn12	> 40
6.08	COCCNc1ccn2nc(-c3ccc(F)cc3)c(-c3ccnc(NC4CCCC4)n3)c2c1	> 40
6.28	Fc1ccc(-c2nn3ccc(NC4CCCC4)cc3c2-c2ccnc(NC3CCCC3)n2)cc1	18
< 5.30	Fc1ccc(-c2nn3ccc(Cl)cc3c2-c2ccnc(NC3CCCC3)n2)cc1	> 40
6.77	c1cc(NC2CCCC2)n2nc(-c3ccc(OCC4CC4)cc3)c(-c3ccnc(NC4CCCC4)n3)c2c1	> 40
6.68	COc1ccc(-c2nn3c(SC(C)C)cc(NC4CCCC4)cc3c2-c2ccnc(NC3CCCC3)n2)cc1	> 40
5.37	COc1ccc(-c2nn3ccc(Cl)cc3c2-c2ccnc(NC3CCCC3)n2)cc1	> 40
5.15	Fc1ccc(-c2nn3c(Cl)cc(Cl)cc3c2-c2ccnc(NC3CCCC3)n2)cc1	> 40
6.47	COc1ccc(-c2nn3c(NC4CC4)cc(Cl)cc3c2-c2ccnc(NC3CCCC3)n2)cc1	> 40
6.66	COc1ccc(-c2nn3c(SC)cc(NC4CCCC4)cc3c2-c2ccnc(NC3CCCC3)n2)cc1	> 40

pIC50 (Human alphaherpesvirus 1)	SMILES	CC50 [1] [µM]
7.15	CC(C)Oc1cc(NC2CCCC2)n2nc(-c3ccc(F)cc3)c(-c3ccnc(NC4CCCC4)n3)c2c1	> 40
6.48	c1cc(-c2c(-c3ccc(OCC4CC4)cc3)nn3ccc(NC4CCCC4)cc23)nc(NC2CCCC2)n1	> 40
6.48	Fc1ccc(-c2nn3c(NC4CC4)cc(Cl)cc3c2-c2ccnc(NC3CCCC3)n2)cc1	> 40
5.28	COc1ccc(-c2nn3c(Cl)cc(Cl)cc3c2-c2ccnc(NC3CCCC3)n2)cc1	> 40
6.74	Fc1ccc(-c2nn3c(N4CCOCC4)cc(Cl)cc3c2-c2ccnc(NC3CCCC3)n2)cc1	> 40
6.62	Fc1ccc(-c2nn3c(NC4CCCC4)cc(NC4CCCC4)cc3c2-c2ccnc(NC3CCCC3)n2)cc1	> 40
5.82	CC(C)Nc1cc(Cl)cc2c(-c3ccnc(NC4CCCC4)n3)c(-c3ccc(F)cc3)nn12	> 40
< 4.44	COc1ccn2nc(-c3ccc(F)cc3)c(-c3ccnc(NC4CCCC4)n3)c2c1	> 36
5.29	Nc1ccn2nc(-c3ccc(F)cc3)c(-c3ccnc(NC4CCCC4)n3)c2c1	20
6.43	CC(C)Sc1cc(NC2CCCC2)cc2c(-c3ccnc(NC4CCCC4)n3)c(-c3ccc(F)cc3)nn12	> 40
7.10	COCCOc1cc(NC2CCCC2)cc2c(-c3ccnc(NC4CCCC4)n3)c(-c3ccc(F)cc3)nn12	32.5
6.66	COc1ccc(-c2nn3c(NC4CCCC4)cc(Cl)cc3c2-c2ccnc(NC3CCCC3)n2)cc1	> 40
6.77	CSc1cc(NC2CCCC2)cc2c(-c3ccnc(NC4CCCC4)n3)c(-c3ccc(F)cc3)nn12	> 40
5.44	Fc1ccc(-c2nn3ccc(N4CCOCC4)cc3c2-c2ccnc(NC3CCCC3)n2)cc1	34
6.66	COc1ccc(-c2nn3c(NC4CCCC4)cccc3c2-c2ccnc(NC3CCCC3)n2)cc1	> 100
6.04	COc1ccc(-c2nn3ccc(NC(C)C)cc3c2-c2ccnc(NC3CCCC3)n2)cc1	> 40
6.77	Fc1ccc(-c2nn3c(NC4CCCC4)cc(OCC4CC4)cc3c2-c2ccnc(NC3CCCC3)n2)cc1	> 40
6.82	Fc1ccc(-c2nn3c(N4CCCCC4)cc(Cl)cc3c2-c2ccnc(NC3CCCC3)n2)cc1	> 40
6.80	CCOc1cc(NC2CCCC2)cc2c(-c3ccnc(NC4CCCC4)n3)c(-c3ccc(F)cc3)nn12	20.6
6.26	CC(C)Nc1cc(NC(C)C)n2nc(-c3ccc(F)cc3)c(-c3ccnc(NC4CCCC4)n3)c2c1	> 40

SMILES	pIC50 (Human alphaherpesvirus 1)	CC50 [1] [µM]
Fc1ccc(-c2nn3c(NC4CCCC4)cccc3c2-c2ccnc(NC3CCCC3)n2)cc1	6.59	> 160
Nc1nc2c(ncn2COCCO)c(=O)[nH]1 [ACYCLOVIR]	6.41	> 200
